Test results as given in patent US9365851B2, “Spalt-like transcription factor 4 (SALL4) and uses thereof” (National University of Singapore, priority 2011, dated 2016).
“Also recorded” adds a separate entry of the source.

What was measured:
PTEN/AKT pathway [1] = assay: PTEN/AKT pathway expression in THP1 cells (Western blot); format: cell-based
Text: To further evaluate the specificity of the SALL4/PTEN pathway, next investigated was whether wild type peptide treatment could affect the expression of PTEN and its downstream target, phosphorylated AKT (pAKT).

PTEN/AKT pathway [2] = assay: PTEN/AKT pathway expression in SNU-398 cells after treatment (Western blot, mRNA); format: cell-based, human; conditions: for PTEN protein expression / phosphorylated AKT (pAKT) level: SNU-398, Western blot
Text: The induction of Pten expression was not affected when wt peptide was administrated together with a Pten inhibitor. AKT, a molecule with levels of phosphorylation controlled by the expression of Pten was affected by the wt peptide addition accordingly. […] The effect of wt peptide on pAKT was abrogated by the Pten inhibitor. […] In contrast, the protein expression level of endogenous Pten was very high in the none-SALL4 expressing SNU387 cells.
Then tested was whether this peptide could reverse the repressive effect of SALL4 on its target genes. The focus was onPTEN, since it is implicated in SALL4-mediated leukemogenesis (Yang et al., Blood, 112:805-813 (2008); Lu et al., PLoS One, 4:e5577 (2009)). In addition, it was previously reported that SALL4 could specifically bind to the PTEN promoter region in a chromatin immunoprecipitation (ChIP) assay (Lu et al., PLoS One, 4:e5577 (2009)). When SALL4 was overexpressed in 293T cells, an enrichment of SALL4 as well as decreased H3 acetylation at this binding site was observed, which correlated with decreased PTEN RNA expression (Lu et al., PLoS One, 4:e5577 (2009))). Therefore, it was hypothesized that SALL4 could recruit the HDAC/NuRD complex to repress PTEN, and that the wild type peptide would compete with endogenous SALL4 in recruiting the HDAC/NuRD complex to the PTEN promoter, and release the repression effect of SALL4 on PTEN. Furthermore, this model would predict that wild type peptide treatment of SALL4-expressing cells would lead to increased epigenetic markers of gene activation, such as H3 acetylation, at the PTEN promoter binding site, as well as an increase in PTEN expression. To test this possibility, SNU-398 cells were treated with scrambled or wild type peptide and subsequently evaluated for PTEN expression and H3 acetylation at the SALL4 binding site at the PTEN promoter region. […] Therefore, the results herein are compatible with the model that SALL4 recruits HDACs to repress PTEN expression, and blocking the SALL4-HDAC interaction with the wild type peptide results in increased expression of PTEN.
To confirm the involvement of PTEN tumor suppressor in SALL4 peptide-induced reduction of number of viable HCC cells, PTEN expression was analyzed by western blot upon drug treatment. […] Whether the increase in PTEN expression upon SALL4 peptide treatment has an effect in PI3K signalling by dephosphorylating AKT was examined.
To confirm the involvement of the PTEN tumor suppressor in the SALL4 peptide-induced reduction of HCC cell viability, PTEN expression was analyzed by western blot upon drug treatment. […] If the increase in PTEN expression has an effect in PI3K signaling was next examined. PTEN functions as a phosphatase to dephosphorylate AKT.

SNU-387 cells = assay: Cell viability assay (MTT/MTS); format: cell-based, human; conditions: for cell viability / number of viable cells: SNU-387 (low/no SALL4), 72 h
Procedure: Cell viability was determined 72 hours after peptide treatments. Absorbance at 490 nm is directly correlated to cell viability. Wild type functional SALL4 peptide (wt), mutant non-functional SALL4 peptide (Mut.), trichostatin A (TSA), scrambled control peptide (Scr.), wild type peptide+PTEN inhibitor SF1670 (wt+Inh.) were given to the cells at the indicated concentration. PTEN inhibitor concentration was 400 nM. (31C, 31D) Western blot analyses of the effects of peptides on PTEN, AKT, and pAKT expression on SNU-398 (31C) and SNU-387 (31D) cells 72 hours following peptide treatments. 20 μM of wt or Scr. peptide or 100 nM of TSA was used. PTEN inhibitor concentration was 400 nM. (31E) Representative images show NOD/SCID mice transplanted with Scr peptide- and wt peptide-treated SNU-398 cells (left) and the dissected subcutaneous tumors (right). Arrow indicates subcutaneous tumor. (31F) Growth curve of subcutaneous tumors (left panel) and tumor weight of tumors dissected at day 26 post-transplantation (right panel). Results are mean±s.d. n=5; * P<0.05. (31G) Representative images show NOD/SCID mice transplanted with 3 million SNU-398 cells at the left flank and treated intraperitoneally for five consecutive days with 56 mg/kg body weight TAT-Mut. peptide or 60 mg/kg body weight wt peptide (top panel) and the dissected subcutaneous tumors (bottom). (31H) Tumor weight of tumors dissected at day 18 post-transplantation and post-treatment of mice treated intraperitoneally with TAT fusion peptides as described in 5 g. Results are mean±s.d. n=5; * P<0.05.
Cell viability assay (MTT) (Invitrogen) was performed according to the manufacturer's instructions. Briefly—10000 cells were seeded in 100 ul medium in 96 well plates. The next day cells were treated as indicated on the figures. At the designated time after the treatment 20 ul of 5 mg/ml MTT solution was added to each well. After 3.5 h incubation at 37 C the medium was removed and the reaction was terminated with a solution of 4 mM HCl, 0.1% Nondet P-40 (NP40) all in isopropanol in dark on orbital shaker for […]. at room temperature. The absorbance was read at 590 nm with a reference filter of 620 nm in Spectromax M3 (ABI) spectrophotometer.
7000 cells were seeded in each wells of a microtiter plate in 100 μL of complete medium. Cells from each treatment were seeded in duplicate. Controls using the same medium without cells were set up in parallel. At various time points, 317 μg/mL of 3-(4,5-dimethylthiazol-2-yl)-5-(3-carboxymethoxyphenyl)-2-(4-sulfophenyl)-2H-tetrazolium (CellTiter96® AQueous One Solution Cell Proliferation Assay, Promega) was added to each well. After four hours incubation of the tetrazolium salt, absorbance at 490 nm was read by a microplate reader.

Compound	PTEN expression (PTEN/AKT pathway [1])	pAKT on Ser 473 (PTEN/AKT pathway [1])	PTEN protein expression (PTEN/AKT pathway [2])	phosphorylated AKT (pAKT) level (PTEN/AKT pathway [2])	PTEN protein expression (PTEN/AKT pathway [2]; listed as scrambled (mutant) peptide)	PTEN protein expression (PTEN/AKT pathway [2]; listed as scrambled peptide)	cell viability / number of viable cells (SNU-387 cells)	cell viability upon SALL4 knockdown (SNU-387 cells; SNU-387, MTS)	PTEN protein expression (PTEN/AKT pathway [2]; listed as Trichostatin A)	Pten mRNA expression (PTEN/AKT pathway [2]; SNU-398)	elevation of PTEN expression level (PTEN/AKT pathway [2]; SNU-398, 24 h, relative to alfa-tubulin)	PTEN protein expression (PTEN/AKT pathway [2]; listed as SALL4 peptide)	phosphorylated AKT (pAKT) level (PTEN/AKT pathway [2]; listed as SALL4 peptide)	PTEN protein expression (PTEN/AKT pathway [2]; listed as SALL4 peptide (wt))	PTEN protein expression (PTEN/AKT pathway [2]; listed as Wild type peptide)	PTEN protein expression (PTEN/AKT pathway [2]; listed as wild type peptide)	phosphorylated AKT (pAKT) level (PTEN/AKT pathway [2]; listed as wt)	cell viability / number of viable cells (SNU-387 cells; listed as SALL4 peptide)	cell viability / number of viable cells (SNU-387 cells; listed as wt)
Scr peptide: same 12 amino acids as the wt peptide, but in a scrambled sequence; negative control (SRMRQKIHPKIQ) [reference compound]	No effect	No effect	an effect not observed	No effect	does not exhibit the same properties	not observed	no change in cell viability												
CTATTTAGCCAAAGGCAAA (short hairpin RNA, chemistry and delivery not given here, further chemistry not given here) [E5 shRNA]								number of viable cells was similar											
CC(/C=C/C(=O)NO)=C\[C@@H](C)C(=O)c1ccc(N(C)C)cc1 [TSA, Trichostatin A, reference compound]	increased PTEN expression	significantly reduced	also induced PTEN expression; also recorded: also induced PTEN upregulation	significantly reduced					levels of PTEN were elevated										
H-MSRRKQAKPQHI-OH [wt peptide, MSRRKQAKPQHI]	increased PTEN expression	significantly reduced	noticeably higher				had no effects; also recorded: did not affect the cell viability			increased Pten mRNA expression level	More than 2 times	extensive increase in PTEN protein	significant reduction of pAKT level; also recorded: marked reduction of phospho AKT protein levels	extensive increased in PTEN expression	increased PTEN protein	increased PTEN expression	significantly reduced	had no effect	no change in cell viability
